Assay results from patent US20070004649A1, “Anti-influenza virus compound comprising biflavonoid-sialic acid glycoside” (The Kitasato Institute, priority 2003, published 2007).
Where two headings read alike, the source gives them in different places.

How the values were obtained:
[1] = target: A/Guizhou/54/89 virus sialidase (Influenza A virus, UniProt I6UMM5); assay: Inhibitory activity against influenza A/Guizhou/54/89 virus sialidase (4-MU-NeuAc substrate, HA vaccine as enzyme); format: biochemical, influenza virus A/Guizhou/54/89 (H3N2 subtype)
Sequence of A/Guizhou/54/89 virus sialidase (I6UMM5 1-469): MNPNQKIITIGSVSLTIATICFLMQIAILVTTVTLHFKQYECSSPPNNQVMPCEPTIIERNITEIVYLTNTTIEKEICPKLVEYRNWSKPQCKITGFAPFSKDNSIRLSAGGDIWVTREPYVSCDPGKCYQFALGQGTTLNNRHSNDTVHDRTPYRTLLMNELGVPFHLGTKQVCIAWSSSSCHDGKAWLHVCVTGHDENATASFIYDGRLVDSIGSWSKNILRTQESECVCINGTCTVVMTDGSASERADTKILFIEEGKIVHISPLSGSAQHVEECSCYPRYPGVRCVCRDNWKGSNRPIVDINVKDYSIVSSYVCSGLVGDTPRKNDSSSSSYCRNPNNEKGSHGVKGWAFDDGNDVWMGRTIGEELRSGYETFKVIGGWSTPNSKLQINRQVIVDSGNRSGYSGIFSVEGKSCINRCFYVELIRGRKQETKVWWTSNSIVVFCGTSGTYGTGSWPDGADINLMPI

[2] = target: A/PR/8/34 virus sialidase (Influenza A virus, UniProt P03468); assay: Inhibitory activity against influenza A/PR/8/34 virus sialidase (4-MU-NeuAc substrate, HA vaccine as enzyme); format: biochemical, influenza virus A/PR/8/34 (H1N1 subtype)
Sequence of A/PR/8/34 virus sialidase (P03468 whole entry): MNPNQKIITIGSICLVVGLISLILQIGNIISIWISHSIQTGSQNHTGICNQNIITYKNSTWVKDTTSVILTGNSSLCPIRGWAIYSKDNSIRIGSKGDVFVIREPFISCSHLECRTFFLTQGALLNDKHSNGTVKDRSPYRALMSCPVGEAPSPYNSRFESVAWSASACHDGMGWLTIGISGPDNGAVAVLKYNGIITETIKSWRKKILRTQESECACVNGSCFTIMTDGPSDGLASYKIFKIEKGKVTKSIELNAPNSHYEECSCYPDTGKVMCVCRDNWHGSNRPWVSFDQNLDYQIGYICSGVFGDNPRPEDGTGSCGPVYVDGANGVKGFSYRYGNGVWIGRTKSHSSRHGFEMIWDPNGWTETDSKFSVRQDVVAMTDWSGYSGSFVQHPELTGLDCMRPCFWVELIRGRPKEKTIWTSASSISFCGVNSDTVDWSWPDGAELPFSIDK

[3] = target: B/Ibaraki/2/85 virus sialidase (Influenza B virus, UniProt P16207); assay: Inhibitory activity against influenza B/Ibaraki/2/85 virus sialidase (4-MU-NeuAc substrate, HA vaccine as enzyme); format: biochemical, influenza virus B/Ibaraki/2/85
Sequence of B/Ibaraki/2/85 virus sialidase (P16207 whole entry): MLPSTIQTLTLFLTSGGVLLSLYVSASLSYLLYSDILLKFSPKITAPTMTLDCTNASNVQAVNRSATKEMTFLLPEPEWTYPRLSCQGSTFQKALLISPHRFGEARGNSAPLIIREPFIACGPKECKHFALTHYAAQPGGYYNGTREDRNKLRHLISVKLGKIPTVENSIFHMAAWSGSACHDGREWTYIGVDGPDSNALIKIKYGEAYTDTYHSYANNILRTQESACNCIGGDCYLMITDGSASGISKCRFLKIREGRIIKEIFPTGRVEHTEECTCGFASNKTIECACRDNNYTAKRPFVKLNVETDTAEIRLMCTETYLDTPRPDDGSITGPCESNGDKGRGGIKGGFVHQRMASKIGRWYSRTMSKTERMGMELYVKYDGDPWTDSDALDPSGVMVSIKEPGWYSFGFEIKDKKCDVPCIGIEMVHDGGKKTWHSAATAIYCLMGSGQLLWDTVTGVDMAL

[4] = tested on: MDCK (Madin-Darby canine kidney) cells; assay: Cytotoxicity in non-infected MDCK cells (MTT method); conditions: 12.5 μg/mL, three days
influenza virus [5] = conditions: cited from earlier work
influenza virus [6] = conditions: cited from earlier work; remark: listed apart in the source
[7] = final concentration of 10 μg/mL

Compound: COc1ccc(-c2cc(=O)c3c(O)cc(O[C@]4(C(=O)O)C[C@H](O)[C@@H](NC(C)=O)[C@H]([C@H](O)[C@H](O)CO)O4)c(-c4cc(-c5cc(=O)c6c(O)cc(OC)cc6o5)ccc4OC)c3o2)cc1 (relative stereo) [Sci-Neu-2, (S)-7″-O-(N-acetylneuraminyl)-7,4′,4′″-tri-O-methylamentoflavone]
- IC50 [1]: 1.15 µM
- inhibition at 1 µg/mL ([1]; final concentration of 1 μg/mL): ~50%
- inhibition at 10 µg/mL [1, 7]: ≥ 80%
- melting point: 200 °C (dec.)
- IC50 [2]: 5.74 µM
- inhibition at 10 µg/mL ([2]; even at a final concentration of 10 μg/mL (second sentence of b311), read-out: inhibitory activity against the A/PR/8/34 virus sialidase): ≥ 70%
- inhibition at 10 µg/mL ([2]; read-out: inhibitory activity against the A/PR/8/34 virus sialidase, final concentration of 10 μg/mL (first sentence of b311)): ≥ 80%
- inhibition at 10 µg/mL [3, 7]: 65%
- inhibition at 100 µg/mL ([3]; final concentration of 100 μg/mL): ≥ 80%

Compound: COc1ccc(-c2cc(=O)c3c(O)cc(O)c(-c4cc(-c5cc(=O)c6c(O)cc(O)cc6o5)ccc4OC)c3o2)cc1 [isoginkgetin]
- cytotoxicity (cell viability by the MTT method) [4]: showed cytotoxicity

Compound: (5)-7″-O-(N-acetylneuraminal)-7,4′-di-O-methylamentoflavone [Gin-Neu-1-(S)]
- inhibitory activity against the A/Guizhou/54/89 virus sialidase ([1]; final concentration of 1 μg/mL): about 50%

Compound: COc1cc(O)c2c(=O)cc(-c3ccc(OC)c(-c4c(OC5(C(=O)O)CC(O)C(NC(C)=O)C(C(O)C(O)CO)O5)cc(O)c5c(=O)cc(-c6ccc(OC7(C(=O)O)CC(O)C(NC(C)=O)C(C(O)C(O)CO)O7)cc6)oc45)c3)oc2c1 [Gin-Neu-2-(S), (S)-7″,4′″-di-O-(N-acetylneuraminyl)-7,4′-di-O-methylamentoflavone]
- inhibitory activity against the A/Guizhou/54/89 virus sialidase ([1]; final concentration of 1 μg/mL): about 50%

Compound: COc1c(O)cc(O)c2c(=O)cc(-c3ccc(O)cc3)oc12 [F36, 5,7,4′-trihydroxy-8-methoxyflavone]
- anti-influenza virus activity in vitro (influenza virus [5]): has anti-influenza virus activity
- anti-influenza virus activity in vivo (influenza virus [6]): has anti-influenza virus activity

Compound: COc1cc(O)c2c(=O)cc(-c3ccc(OC)c(-c4c(O)cc(O)c5c(=O)cc(-c6ccc(O)cc6)oc45)c3)oc2c1 [ginkgetin]
- cytotoxicity (cell viability by the MTT method) [4]: showed cytotoxicity

Compound: (R)-7″-O-(N-acetylneuraminyl)-7,4-di-O-methylamentoflavone [Gin-Neu-1-(R)]
- IC50, A/Guizhou/54/89 virus sialidase [1]: 1 µg/mL
- inhibitory activity against the A/Guizhou/54/89 virus sialidase ([1]; final concentration of 1 μg/mL): about 50%

Compound: COC(=O)C1(Oc2cc(O)c3c(=O)cc(-c4ccc(O)cc4)oc3c2-c2cc(-c3cc(=O)c4c(O)cc(OC)cc4o3)ccc2OC)CC(OC(C)=O)C(NC(C)=O)C(C(OC(C)=O)C(COC(C)=O)OC(C)=O)O1 [Gin-NeuAc-3, (S)-7,4′-di-O-methyl-7″-O-(1″″-methyl-4″″,7″″,8″″,9″″-tetra-O-acetyl-N-acetylneuraminyl)a mentoflavone]
- inhibitory activity against the A/Guizhou/54/89 virus sialidase ([1]; final concentration of 1 μg/mL): about 50%

Compound: COC(=O)C1(Oc2ccc(-c3cc(=O)c4c(O)cc(OC5(C(=O)OC)C[C@H](OC(C)=O)[C@@H](NC(C)=O)[C@H]([C@H](OC(C)=O)[C@@H](COC(C)=O)OC(C)=O)O5)c(-c5cc(-c6cc(=O)c7c(O)cc(OC)cc7o6)ccc5OC)c4o3)cc2)C[C@H](OC(C)=O)[C@@H](NC(C)=O)[C@H]([C@H](OC(C)=O)[C@@H](COC(C)=O)OC(C)=O)O1 (stereo partly drawn) [Gin-NeuAc-4, (R)-7,4′-di-O-methyl-7″-O-(1″″-methyl-4″″,7″″,8″″,9″″-tetra-O-acetyl-N-acetylneuraminyl)-4′″-O-(1′″″-methyl-4′″″,7′″″,8′″″,9′″″-tetra-O-acetyl-N-acetylneuraminyl)amentoflavone]
- inhibitory activity against the A/Guizhou/54/89 virus sialidase ([1]; final concentration of 1 μg/mL): about 50%
